Reference: paper PMC8364251 (Pharmacological Research, 2021)

Key:
Format in all cases: cell-based, SARS-CoV-2
[1] = tested on: Y453F mutant S-pseudotyped lentivirus
[2] = tested on: N439K mutant S-pseudotyped lentivirus
[3] = tested on: N501Y mutant S-pseudotyped lentivirus

O=C(O[C@@H]1Cc2c(O)cc(O)cc2O[C@@H]1c1cc(O)c(O)c(O)c1)c1cc(O)c(O)c(O)c1 [EGCG, epigallocatechin gallate]
inhibition of mutant pseudovirus infection [1]: effectively inhibited the infection of all mutants
inhibition of mutant pseudovirus infection [2]: effectively inhibited the infection of all mutants
inhibition of mutant pseudovirus infection [3]: effectively inhibited the infection of all mutants
